Where “and” joins values, the source holds several entries; their conditions need not be identical. Equal values may be shown once. Read-outs that look alike come from different tables or passages of the source.
Biological target: HIV-1LAI envelope gp120 (Human immunodeficiency virus type 1 group M subtype B, UniProt P03377)
Assay type: binding
Settings: for Binding Results For Window Length (counts bound-background), 9 / Binding Results For Window Length (counts bound-background), 12 / Binding Results For Window Length (counts bound-background), 15 / Binding Results For Window Length (counts bound-background), 18: STRL33 amino terminus; for Binding Results For Window Length (counts bound-background), 9: 9-mer starting at the first residue of the printed sequence; for Binding Results For Window Length (counts bound-background), 12: 12-mer starting at the first residue of the printed sequence; for Binding Results For Window Length (counts bound-background), 15: 15-mer starting at the first residue of the printed sequence; for Binding Results For Window Length (counts bound-background), 18: 18-mer starting at the first residue of the printed sequence
[1] = Panel D, 9-mers and 12-mers of CD4, empty control […]
[2] = Panel B, 15-mers and 18-mers of CD4, empty control 575
[3] = STRL33 18-mer scan, background subtracted, first of two count columns
[4] = STRL33 18-mer scan, background subtracted, second of two count columns
[5] = Panel F, sequential alanine replacements of CD4 polypeptides, duplicate series, empty control 569
[6] = Panel E, 9-mers and 12-mers of CD4, empty control 571

## DRYLAIVHATNSQRPRKL
CXCR4 18-mer scan, background subtracted, empty control 0
  radioactive counts recorded in twenty minutes: 168 counts
CXCR4 18-mer scan, empty control 412
  radioactive counts recorded in twenty minutes: 580 counts

## DRYLAVVHAVFALKARTV
CCR5 18-mer scan, radiolabeled HIV-1LAI gp120, background subtracted
  Counts per 20′ Average-background: 62 counts per 20′

## DSDTYICEV
[1]
  COUNTS of radiolabeled gp120 retained: 712 counts

## DSDTYICEVEDQ
[1]
  COUNTS of radiolabeled gp120 retained: 937 counts

## DSDTYICEVEDQKEE
[2]
  COUNTS of radiolabeled gp120 retained: 973 counts

## DSDTYICEVEDQKEEVQL
[2]
  COUNTS of radiolabeled gp120 retained: 961 counts

## DSSQEEHQAFLQFSK
Background subtracted
  Binding Results For Window Length (counts bound-background), 9: 147 counts
  Binding Results For Window Length (counts bound-background), 12: 882 counts
  Binding Results For Window Length (counts bound-background), 15: 4588 counts

## DSSQEEHQAFLQFSKVFL [STRL33 segment 17-34]
[3]
  radioactive counts recorded in twenty minutes: 869.5 counts
[4]
  radioactive counts recorded in twenty minutes: 2152.5 counts

## DTHLLQGQS
[1]
  COUNTS of radiolabeled gp120 retained: 578 counts

## DTHLLQGQSLTL
[1]
  COUNTS of radiolabeled gp120 retained: 527 counts

## DTHLLQGQSLTLTLE
[2]
  COUNTS of radiolabeled gp120 retained: 1622 counts

## DTYICEVED
[1]
  COUNTS of radiolabeled gp120 retained: 1043 counts

## DTYICEVEDQKE
[1]
  COUNTS of radiolabeled gp120 retained: 720 counts

## DTYICEVEDQKEEVQ
[2]
  COUNTS of radiolabeled gp120 retained: 1071 counts

## DTYICEVEDQKEEVQLLV
[2]
  COUNTS of radiolabeled gp120 retained: 1648 counts

## DYGFSSFNDSSQEEHQAF [STRL33 segment 9-26]
[3]
  radioactive counts recorded in twenty minutes: 8579.5 counts
[4]
  radioactive counts recorded in twenty minutes: 8909.5 counts
Background subtracted
  Binding Results For Window Length (counts bound-background), 9: 701 counts
  Binding Results For Window Length (counts bound-background), 12: 573 counts
  Binding Results For Window Length (counts bound-background), 15: 595 counts
  Binding Results For Window Length (counts bound-background), 18: 440 counts

## DYHEDYGFSSFNDSSQEE [STRL33 segment 5-22]
[3]
  radioactive counts recorded in twenty minutes: 3357.5 counts
[4]
  radioactive counts recorded in twenty minutes: 3689.5 counts
Background subtracted
  Binding Results For Window Length (counts bound-background), 9: 851 counts
  Binding Results For Window Length (counts bound-background), 12: 1554 counts
  Binding Results For Window Length (counts bound-background), 15: 1240 counts
  Binding Results For Window Length (counts bound-background), 18: 1191 counts

## EAISTVVLATQMTLGFFL [STRL33 segment 185-202]
[3]
  radioactive counts recorded in twenty minutes: 3973.5 counts
[4]
  radioactive counts recorded in twenty minutes: 3745.5 counts

## EAVQLLVFGLTANSD
[5]
  COUNTS of radiolabeled gp120 retained: 14220 counts and 13213 counts

## EDQKEEVQL
[1]
  COUNTS of radiolabeled gp120 retained: 564 counts

## EDQKEEVQLLVF
[1]
  COUNTS of radiolabeled gp120 retained: 1379 counts

## EDQKEEVQLLVFGLT
[2]
  COUNTS of radiolabeled gp120 retained: 3633 counts

## EDQKEEVQLLVFGLTANS
[2]
  COUNTS of radiolabeled gp120 retained: 3416 counts

## EDSDTYICE
[1]
  COUNTS of radiolabeled gp120 retained: 650 counts

## EDSDTYICEVED
[1]
  COUNTS of radiolabeled gp120 retained: 956 counts

## EDSDTYICEVEDQKE
[2]
  COUNTS of radiolabeled gp120 retained: 815 counts

## EDSDTYICEVEDQKEEVQ
[2]
  COUNTS of radiolabeled gp120 retained: 788 counts

## EDYGFSSFNDSSQEEHQA
Background subtracted
  Binding Results For Window Length (counts bound-background), 9: 953 counts
  Binding Results For Window Length (counts bound-background), 12: 817 counts
  Binding Results For Window Length (counts bound-background), 15: 1152 counts
  Binding Results For Window Length (counts bound-background), 18: 548 counts

## EEAQLLVFGLTANSD
[5]
  COUNTS of radiolabeled gp120 retained: 18124 counts and 16296 counts

## EEHQAFLQFSKV
Background subtracted
  Binding Results For Window Length (counts bound-background), 9: 6060 counts
  Binding Results For Window Length (counts bound-background), 12: 5598 counts

## EEHQAFLQFSKVFLPCMY [STRL33 segment 21-38]
[3]
  radioactive counts recorded in twenty minutes: 2316.5 counts
[4]
  radioactive counts recorded in twenty minutes: 1819.5 counts

## EEVALLVFGLTANSD
[5]
  COUNTS of radiolabeled gp120 retained: 10890 counts and 13415 counts

## EEVQALVFGLTANSD
[5]
  COUNTS of radiolabeled gp120 retained: 11258 counts and 12603 counts

## EEVQLAVFGLTANSD
[5]
  COUNTS of radiolabeled gp120 retained: 11954 counts and 13690 counts

## EEVQLLAFGLTANSD
[5]
  COUNTS of radiolabeled gp120 retained: 13317 counts and 16286 counts

## EEVQLLVAGLTANSD
[5]
  COUNTS of radiolabeled gp120 retained: 9573 counts and 11480 counts

## EEVQLLVFALTANSD
[5]
  COUNTS of radiolabeled gp120 retained: 19348 counts and 18254 counts

## EEVQLLVFG
[1]
  COUNTS of radiolabeled gp120 retained: 3170 counts

## EEVQLLVFGATANSD
[5]
  COUNTS of radiolabeled gp120 retained: 19978 counts and 10408 counts

## EEVQLLVFGLAANSD
[5]
  COUNTS of radiolabeled gp120 retained: 18863 counts and 19973 counts

## EEVQLLVFGLTA
[1]
  COUNTS of radiolabeled gp120 retained: 3261 counts

## EEVQLLVFGLTAASD
[5]
  COUNTS of radiolabeled gp120 retained: 19200 counts and 19390 counts

## EEVQLLVFGLTANAD
[5]
  COUNTS of radiolabeled gp120 retained: 17928 counts and 17684 counts

## EEVQLLVFGLTANSA
[5]
  COUNTS of radiolabeled gp120 retained: 22206 counts and 18227 counts

## EEVQLLVFGLTANSD
[2]
  COUNTS of radiolabeled gp120 retained: 6423 counts
[5]
  COUNTS of radiolabeled gp120 retained: 18721 counts and 18582 counts and 19738 counts and 21338 counts
Panel G, alanine replacements and serial truncations (Z) of CD4 polypeptides, empty control 580
  COUNTS of radiolabeled gp120 retained: 18040 counts and 23357 counts

## EEVQLLVFGLTANSDTHL
[2]
  COUNTS of radiolabeled gp120 retained: 783 counts

## EEVQLLVFGLTTNSD
[5]
  COUNTS of radiolabeled gp120 retained: 20021 counts and 20100 counts

## EFKIDIVVL
[6]
  COUNTS of radiolabeled gp120 retained: 665 counts

## EFKIDIVVLAFQ
[6]
  COUNTS of radiolabeled gp120 retained: 659 counts

Reference: US20030068615A1, “Polypeptides that bind HIV gp120 and related nucleic acids, antibodies, compositions, and methods of use” (priority 1999, published 2003)
